Assays:
[1] = system: patients with clinically-confirmed CIRS-WDB; experiment: Stress echocardiography, pulmonary artery systolic pressure (PASP) in exercise; type: in vivo, human; settings: all subjects, within two months; entry criterion rise exceeding 8 mm Hg versus resting PASP
From the text: Entry criteria also included a rise in pulmonary artery systolic pressure (PASP) in exercise as measured by stress echocardiography that exceeded 8 mm Hg as compared to resting PASP. Standard Bruce protocols were employed during stress echocardiography testing. […] All patients achieved target heart rate; none developed ischemic changes on EKG or chest pain during stress testing.

[2] = system: patients with clinically-confirmed CIRS-WDB; experiment: Open-label VIP replacement trial: safety and tolerability
From the text: (§1) For the experimental protocol, subjects self-administered 50 mcg VIP (Aviptadil; Bachem AG, Switzerland) four times a day via nasal aerosol and returned to the clinic to review symptoms and clinical course, and undergo interval physical exam and laboratory exam at scheduled intervals. Clinical data were collected before any treatments, or baseline (BASE); after all other treatments and before VIP (AC2); after 12 months of VIP (12M); and after 18 months of VIP (18M). Data collection included physician recorded symptoms in a medical history (Table 2); levels of VIP, MSH, C4a, TGF beta-1, VEGF, MMP9, estradiol, testosterone, 25-0H vitamin D, lipase, CBC and CMP. Measurement of CD4+CD25+T regulatory (Treg) cells was not available at BASE; Treg testing was performed at AC2 and 18 month time periods. Laboratory testing for all analytes was performed by high complexity CLIA-certified labs including LabCorp and Quest Diagnostics. All data were compared to either established normative values or values from prior testing of healthy control populations (N=850) performed at this clinic. Data were analyzed by two-sample T-tests for each of two study time points and one-sample T-tests that compared the specified data to the corresponding historical control values. A Bonferroni correction to the p-values was done to control the experiment-wise error rate. A p value of <0.001 was chosen as the determinant of significance for the study.

CD4+CD25+ Treg cells = experiment: Flow cytometry of CD4+CD25+ T regulatory (Treg) cells; type: in vivo, human; settings: 18 month versus AC2, increase from a mean of 8.9
From the text: CD4^+ CD25^+ Treg cells in CIRS patients can be measured by flow cytometry. CD4^+ CD25^+ Treg cells mature in response to an inflammatory stimulation, and in particular, in response to increasing levels of TGF-β1. Matured CD4^+ CD25^+ Treg cells migrate to tissues to suppress inflammation and autoimmunity. However, if there is a pre-existing inflammatory response ongoing in tissues, CD4^+ CD25^+ Treg cells may turn into autoreactive T cells. Therefore, the determination of CD4^+ CD25^+ Treg cells in blood as well as in tissues may be helpful in assessing the status of inflammation in CIRS patients.

[3] = system: patients with clinically-confirmed CIRS-WDB; experiment: Open-label VIP replacement trial: laboratory parameters (CLIA labs); settings: for Estra-M (estradiol in males) mean value: Control 23.1, Base 36, AC2 30.3; for VIP level mean value: Control 28.9, Base 9.3, AC2 14.4; for Estra-F (estradiol in females) mean value: Control 29.8, Base 28, AC2 26.6; for Lipase mean value: Control 30.1, Base 24.2, AC2 30.8; for MSH mean value: Control 37.2, Base 9.4, AC2 16.8; for VIT D (25-OH vitamin D) mean value: Control 38.4, Base 19.4, AC2 24.1; for VEGF mean value: Control 65, Base 61, AC2 95.3; for Test-F (testosterone in females) mean value: Control 282, Base 20, AC2 18.9; for MMP-9 mean value: Control 332, Base 628, AC2 358; for Test-M (testosterone in males) mean value: Control 415, Base 298.8, AC2 293.5; for TGF (TGF beta-1) mean value: Control 2380, Base 12579, AC2 13015; for C4a mean value: Control 2830, Base 8346, AC2 4662
From the text: (§2) 3A. Treatment: Human research approval for this study was provided by Copernicus Group IRB, Cary, N.C. […] Further, certain patients were excluded from the trial for the following reason. […] Patients with these findings were excluded from the formal replacement trial.
(§3) All patients enrolled in the trial were confirmed to be exposed to WDB by observation of illness acquisition solely following water intrusion followed by either (1) visible microbial growth; (2) specification of molds by QPCR DNA testing; or (3) musty smells. All patients met the case criteria established by the GAO (US GAO 2008). Patients were known to the clinic with a 36-month mean duration of prior treatment following exposure to WDB.
as §1

human volunteers = experiment: Initial use of low dose VIP by nasal instillation (earlier trials)
From the text: as §2

[4] = system: patients with clinically-confirmed CIRS-WDB; experiment: Open-label VIP replacement trial: physician recorded symptoms; type: in vivo, human; settings: for SX (symptoms) mean value: Control 2.9, Base 29.8, AC2 17.8
From the text: as §2, §3, §1

[5] = initial use of low dose VIP by nasal instillation

CC[C@H](C)[C@H](NC(=O)[C@H](CO)NC(=O)[C@H](CC(N)=O)NC(=O)[C@H](CC(C)C)NC(=O)[C@H](Cc1ccc(O)cc1)NC(=O)[C@H](CCCCN)NC(=O)[C@H](CCCCN)NC(=O)[C@@H](NC(=O)[C@H](C)NC(=O)[C@H](CCSC)NC(=O)[C@H](CCC(N)=O)NC(=O)[C@H](CCCCN)NC(=O)[C@H](CCCNC(=N)N)NC(=O)[C@H](CC(C)C)NC(=O)[C@H](CCCNC(=N)N)NC(=O)[C@@H](NC(=O)[C@H](Cc1ccc(O)cc1)NC(=O)[C@H](CC(N)=O)NC(=O)[C@H](CC(=O)O)NC(=O)[C@@H](NC(=O)[C@H](Cc1ccccc1)NC(=O)[C@@H](NC(=O)[C@H](C)NC(=O)[C@H](CC(=O)O)NC(=O)[C@H](CO)NC(=O)[C@@H](N)Cc1c[nH]cn1)C(C)C)[C@@H](C)O)[C@@H](C)O)C(C)C)C(=O)N[C@@H](CC(C)C)C(=O)N[C@@H](CC(N)=O)C(N)=O [VIP, Aviptadil]
Elevated PASP in stress exercise testing reduced to [1]: < 8 mm Hg | Tolerability ([2]; 18 month study, 20 patients, nasal aerosol): tolerated the drug well | Changes in CBC and CMP ([2]; during the trial): No changes | Dropouts due to adverse effects ([2]; over the course of the 18 month study): no dropouts due to adverse effects | Elevated lipase, cases ([2]; resolved without cessation of use of VIP): One patient had a transient elevated level of lipase without abdominal pain | Lipase levels during the trial ([2]; whole cohort): did not rise | CD4+CD25+ Treg cells, mean (CD4+CD25+ Treg cells): 22.5 | Inflammatory parameters versus controls ([3]; VIP nasal spray, open-label trial): not significantly different from controls | Estra-M (estradiol in males) mean value ([3]; after 12 months of VIP): 27.7 | VIP level mean value ([3]; after 12 months of VIP): 12.3 | Estra-F (estradiol in females) mean value ([3]; after 12 months of VIP): 27.8 | Lipase mean value ([3]; after 12 months of VIP): 30.7 | MSH mean value ([3]; after 12 months of VIP): 17.3 | VIT D (25-OH vitamin D) mean value ([3]; after 12 months of VIP): 38.3 | VEGF mean value ([3]; after 12 months of VIP): 73.4 | Test-F (testosterone in females) mean value ([3]; after 12 months of VIP): 22.6 | MMP-9 mean value ([3]; after 12 months of VIP): 302 | Test-M (testosterone in males) mean value ([3]; after 12 months of VIP): 546.7 | TGF (TGF beta-1) mean value ([3]; after 12 months of VIP): 5359 | C4a mean value ([3]; after 12 months of VIP): 5679 | Estra-M (estradiol in males) mean value ([3]; after 18 months of VIP): 22.8 | VIP level mean value ([3]; after 18 months of VIP): 16.6 | Estra-F (estradiol in females) mean value ([3]; after 18 months of VIP): 28.9 | Lipase mean value ([3]; after 18 months of VIP): 27.9 | MSH mean value ([3]; after 18 months of VIP): 18.2 | VIT D (25-OH vitamin D) mean value ([3]; after 18 months of VIP): 39.3 | VEGF mean value ([3]; after 18 months of VIP): 66.2 | Test-F (testosterone in females) mean value ([3]; after 18 months of VIP): 25.2 | MMP-9 mean value ([3]; after 18 months of VIP): 290 | Test-M (testosterone in males) mean value ([3]; after 18 months of VIP): 511.5 | TGF (TGF beta-1) mean value ([3]; after 18 months of VIP): 4040 | C4a mean value ([3]; after 18 months of VIP): 3306 | Patient values versus controls by the end of the trial (symptoms, MSH, VIP, MMP9, C4a, TGF-β1, 25-OH Vitamin D, testosterone in males) ([3]; end of the trial, baseline differed from controls at p<0.01): not statistically different from controls, except for VIP and MSH | Safety of low dose VIP by nasal instillation (human volunteers; human volunteers, initial use): shown to be safe | Effect on pulmonary artery responses to exercise (human volunteers; [5]): blunted accentuated pulmonary artery responses to exercise | Effect on symptoms (human volunteers; [5]): prompt reduction in symptoms | Quality of life ([4]; 20 patients, open-label trial): enhanced quality of life | SX (symptoms) mean value ([4]; after 12 months of VIP, 50 mcg four times a day nasal aerosol): 5.5 | SX (symptoms) mean value ([4]; after 18 months of VIP): 3.4 | Symptom reduction versus controls ([4]; all treated patients): Symptom reduction to equal those of controls

— patent publication US9770170B2, “Methods for diagnosing, treating, and monitoring chronic inflammatory response syndrome” (priority 2012, dated 2017)
